Data: patent US20150366839A1, “Schisantherin A for the treatment of neurodegenerative diseases” (priority 2014, published 2015)

How the values were obtained:
CREB = experiment: p-CREB, CREB and Bcl-2 time course with SchiA alone, Western blot; assay type: cell-based, Human; conditions: 60 μM alone
Method: (§1) After treatment, SH-SY5Y cells were washed three times with PBS and then lysis with RIPA lysis buffer containing 1% PMSF and 1% Protease Inhibitor Cocktail and incubated for 30 min on ice. Cell lysates were centrifuged at 12,500 g for 20 min at 4° C. The supernatant was separated and the amount of protein was determined using the BCA protein assay kit (Thermo Scientific Pierce, USA). Protein samples (30 μg) were separated by SDS-PAGE (10% (w/v)) polyacrylamide gel and then transferred to a polyvinylidene difluoride (PVDF) membrane (Bio-Rad, Hercules, Calif.). Subsequently, the membrane was blocked with 5% (v/v) non-fat milk in PBST (PBS containing 0.1% Tween 20) for 1 h at room temperature. The blots were incubated overnight at 4° C. with primary antibodies. After three washes with PBST, the membranes were incubated with horseradish peroxidase-conjugated secondary antibodies (1:2000) in PBST with 5% non-fat milk for 1 h at room temperature. After repeated washes, proteins were visualized with an ECL advanced western blotting detection kit. […] Quantitative assessment of protein bands was done with Gel Doc™ XRS equipped with Quantity One software.
To investigate the effect of SchiA on the activation of the upstream targets of CREB in MPP^+-treated SH-SY5Y cells, the protein levels of p-CREB/CREB and were determined. […]

Akt = experiment: p-Akt level after MPP+, Western blot; assay type: cell-based, Human
Method: as §1, with “antibodies.” for “antibodies. After three washes with PBST, the membranes were incubated with horseradish peroxidase-conjugated secondary antibodies (1:2000) in PBST with 5% non-fat milk for 1 h at room temperature. After repeated washes, proteins were visualized with an ECL advanced western blotting detection kit.”
The inventors also investigated the contribution of the PI3K/Akt pathway in the neuroprotective effects of SchiA. The inventors measured phosphorylation-Akt (p-Akt) levels after pre-treated with 60 μM SchiA for 12 h and then exposed to 2 mM MPP for another 36 h. […] To further validate whether the activation of PI3K/Akt signaling pathway, the inventors determined the blocking effect of PI3K/Akt inhibitor such as AKT inhibitor IV on the in vitro neuroprotective effect of SchiA. […]

DA neurons in zebrafish = experiment: Anti-TH whole-mount immunostaining, 6-OHDA-induced DA neuron loss; assay type: in vivo; conditions: 10 μM co-treatment, 250 μM 6-OHDA, 2 days
Method: The wild type zebrafish was used for this study.
Zebrafish at one dpf were exposed to 250 μM 6-OHDA in the presence or absence of 10 μM Schi A or 3 μM nomifensine (Nom, a DAT (dopamine transporter) inhibitor used as a positive control) for 2 days. Then zebrafish were collected for immunostaining to detect the DA neurons. Zebrafish were fixed in 4% paraformaldehyde in PBS for 30 min, rinsed, and stored at −20° C. in 100% MtOH. Whole-mount immunostaining was done by standard methods (Zhang, Cheang et al. 2011). Briefly, paraformaldehyde fixed samples were blocked (2% goat serum and 0.1% BSA in PBST,) for 1 h at room temperature. A mouse monoclonal anti-tyrosine hydroxylase antibody (1:200 diluted in blocking buffer) was used as the primary antibody and incubated overnight with the sample at 4° C. […] Semi-quantification TH^+ cells were assessed by an investigator blinded to drug treatment history of zebrafish using Image-Pro Plus 6.0 software (Media Cybernetics, Silver Spring, Md., USA). Results are expressed as percentage of area of TH^+ cells in untreated control group.
To further evaluate the neuroprotective effect of SchiA in vivo, the inventors examined the DA neurons in zebrafish by whole-mount immunofluorescent staining with an antibody against tyrosine hydroxylase (TH). […] Data is expressed as percentage of the control group. […]

[1] = SchiA pharmacokinetics study in plasma; assay type: in vivo, Sprague-Dawley rats; conditions: microemulsion 30 mg/kg
Method: Male Sprague-Dawley rats (SD rats) with body weight between 220 and 250 g and age between 6 and 7 weeks were supplied by Guangdong Medical Experiment Animal Center (Guangzhou, China). SchiA was prepared as microemulsion for i.v. and p.o. at 30 mg/kg. The concentration of SchiA microemulsion was 4.9 mg/ml. After administration of SchiA, blood samples were collected at 0.033, 0.167, 0.5, 1, 2, 4, 8, 12, 24 and 36 h, respectively. Plasma samples were obtained after centrifugation of the collected blood samples at 10,000 rpm for 5 min. Subsequently, in 100 μl plasma which was taken from the supernatant, 200 μl of 50% acetonitrile and 50% methanol were added. After vortexing for 20 s and centrifuging at 12,000 rpm for 10 min, the supernatant was collected and filtered through a 0.22 μm membrane, of which 20 μl was injected into the chromatographic system for analysis.
Quantitative analysis of SchiA was completed on an Agilent series 1260 HPLC apparatus (Agilent Technologies, Santa Clara, Calif., USA) equipped with a vacuum degasser, a quaternary pump, a manual sampler and an ultraviolet detector. RP Phenonenex C-18 column (250 mm×4.6 mm, 5 μm) was used to separate at 35° C. with a mobile phase of water and methanol (83:17, v/v). The flow rate was 1 ml/min. The monitoring wavelength of SchiA was 230 nm.
And then non-compartmental model of DAS 2.0 program was chosen to calculate the major pharmacokinetic parameters.

caspase-7 = experiment: MPP+-induced caspase-7 activation, Western blot; assay type: cell-based, Human; conditions: 60 μM 12 h, then 2 mM MPP+ 36 h
Method: as §1, with “temperature.” for “temperature. After repeated washes, proteins were visualized with an ECL advanced western blotting detection kit.”
The inventors performed Western blot to measure the expression of active-form of caspase-3 and caspase-7 in SH-SY5Y cells. […] Caspase-3 activity was expressed as units per mg protein. ###p<0.005 versus control group; *p<0.05, **p<0.01 and *** p<0.005 versus MPP+ group.

COc1cc2c(c(OC)c1OC)-c1c(cc3c(c1OC)OCO3)C[C@H](C)[C@](C)(O)[C@H]2OC(=O)c1ccccc1 [SchiA, Schisantherin A]
phosphorylation of CREB compared with 0 h (CREB; after 3 h): about 1.5 fold
Bcl-2 expression (CREB; from 3 h to 12 h): induced
MPP+-induced down-regulation of Akt expressions (Akt; 60 μM 12 h, then 2 mM MPP+ 36 h): inhibited
p-Akt level compared to control group, compound alone (Akt; 60 μM, without MPP+): 2.5 fold
6-OHDA-induced dopaminergic neuron loss (area of TH+ cells) (DA neurons in zebrafish): attenuate the dopaminergic neuron loss induced by 6-OHDA almost to the normal level
t1/2 ([1]; i.v.): 15.88 ± 1.82 h
Tmax ([1]; rat plasma): 1.33 ± 0.58 h
t1/2 ([1]; p.o.): 16.543 ± 6.95 h
MPP+-induced caspase-7 activation (active form) (caspase-7): significant decrease
